Usually IC50 stands for the point on the concentration scale where inhibition reaches its midpoint. Read a high IC50 as a need for much substance. For orientation: MBC means the smallest concentration meeting the test's criterion for killing. A low value points to greater bactericidal potency.

These results are taken from US12447238B2, “Antimicrobial tubular conduits” (SANIDRINK S.R.L., priority 2020, dated 2025).

In assay [1] the test system is L. monocytogenes (LM2) (field strain). As to the kind of experiment: IC50 by broth microdilution and plate count against L. monocytogenes. The class given is cell-based, Listeria monocytogenes. The following applies: 6 hours at 37° C. in Fraser Broth, plate count. How it is done: (§1) The bactericidal activity of RiLK1 peptides was assessed against both Gram positive (Listeria monocytogenes LM2 and Staphylococcus aureus) and Gram negative (Salmonella typhimurium and Escherichia coli) pathogenic bacteria.
(§2) The assessment of the concentration of RiLK1 peptides capable of inhibiting 50% of bacterial growth (IC50) was performed by the broth microdilution assay as described in Wang HX and Ng TB (2003, Peptides 24:969-972).
(§3) Standard deviations were obtained from triplicate experiments for each peptide dilution, and the IC50s were determined using GraphPad Prism version 6.00 (Graph-Pad Software, La Jolla California USA).
(§4) All bactericidal activity assays were performed using 2-3 log CFUs (Colony Forming Units), which represents a realistic approximation of the contamination levels that may be contained in the tubular conduits for food or medical use.
All experimental conditions investigated used the plate count method to estimate the bactericidal activity of the peptides. Specifically, the numbers of colonies grown on agar plates seeded with the bacterial suspensions in the absence or presence of the individual peptide dilutions were counted and compared. Standard deviations were determined using statistical software. […]
On the technique in general: Dilution methods test growth across graded concentrations, often in twofold steps.

The subject of assay [2] is E. coli (ATCC). The class given is cell-based, Escherichia coli. The following applies: 6 h. On the procedure:
as §1, §2, §3, §4
All experimental conditions investigated used the plate count method to estimate the bactericidal activity of the peptides. Specifically, the numbers of colonies grown on agar plates seeded with the bacterial suspensions in the absence or presence of the individual peptide dilutions were counted and compared. Standard deviations were determined using statistical software.
A control stock suspension was prepared in which 10^3 CFUs of E. coli were inoculated in 10 ml of BPW (Oxoid, Basingstoke, UK). […]

For assay [3], the system named is L. monocytogenes (LM2) (field strain). In words: Minimum Bactericidal Concentration (MBC) against L. monocytogenes. The class given is cell-based, Listeria monocytogenes. The following applies: 99.9% inhibition of bacterial growth on plates. How it is done:
(§5) The evaluation of the Minimum Bactericidal Concentration (MBC), i.e., the lowest concentration of antimicrobial agent capable of 99.9% inhibition of bacterial growth on plates, was carried out as described in Bilikova et al, (2015, Peptides 68:190-196).

Assay [4] deals with E. coli (ATCC). In words: Minimum Bactericidal Concentration (MBC) against E. coli. The class given is cell-based, Escherichia coli. The following applies: 99.9% inhibition of bacterial growth on plates. On the procedure: as §5
Assay [5] concerns Aspergillus brasiliensis (ATCC 9341). The class given is cell-based. How it is done:
The antifungal activity of the RiLK1 peptide was determined against Aspergillus brasiliensis. For this purpose, a stock culture was prepared in which 10^5 CFUs of A. brasiliensis were inoculated in 10 ml of buffered peptone water. A reference strain (ATCC 9341) was used for this fungal species. The culture was incubated for 6 h at 37° C. with the RiLK1 peptide at 25 μM concentrations.
At the same time, control samples were incubated without adding the peptide. 100 μl of the samples thus prepared were seeded on DG18 plates (Dichloran 18% Glycerol Agar—ISO 21527-2) and incubated at 25° C. for 7 days.
(§6) All experimental conditions investigated used the plate count method to estimate the fungicidal activity of the peptide. Specifically, the numbers of colonies grown on agar plates seeded with the fungal suspensions in the absence or presence of the individual peptide dilutions were counted and compared. The standard deviations of the triplicate incubations of each plate were determined using statistical software. The evaluation of the Minimum Fungicidal Concentration (MFC), i.e., the lowest concentration of antifungal agent capable of 99.9% inhibition of fungal growth on plates, was carried out as described in Bilikova et al, (2015, Peptides 68:190-196).

For assay [6], the system named is Candida albicans (ATCC 14053). The class given is cell-based. How it is done:
The inhibitory activity of the RiLK1 peptide was determined against the yeast Candida albicans. A stock culture was prepared in which 10^5 CFUs of C. albicans were inoculated in 10 ml of buffered peptone water. A reference strain (ATCC 14053) was used for this species. The culture was incubated for 6 h at 37° C. with the RiLK1 peptide at 25 μM concentrations. At the same time, control samples were incubated without adding the peptide. 100 μl of the samples thus prepared were seeded on DG18 plates (Dichloran 18% Glycerol Agar—ISO 21527-2) and incubated at 25° C. for 7 days.
as §6, with “antimycotic” for “fungicidal”, “cultures” for “fungal suspensions”

Assay [7] concerns E. coli. In words: Bactericidal activity of AMP peptides at 15 μM (CFU vs control), E. coli. The class given is cell-based. The following applies: peptide 15 μM. How it is done: (§7) The bactericidal activity of further AMP peptides used in the invention, in particular of the RiLK31 peptide (RLRWVKIWKK, SEQ ID NO:31) and the RiLK3 peptide (RLRWVRIWRR, SEQ ID NO:3), was tested. The bactericidal activity was expressed as a percentage of viable cells in terms of CFU (Colony Forming Units) in a bacterial sample exposed to each peptide compared to those in a control bacterial sample in the absence of the peptide. All tests were carried out with the same peptide concentration, corresponding to 15 μM.

The subject of assay [8] is Staphylococcus. In words: Bactericidal activity of AMP peptides at 15 μM (CFU vs control), Staphylococcus. The class given is cell-based. The following applies: peptide 15 μM. On the procedure:
as §7

In assay [9] the test system is Salmonella. In words: Bactericidal activity of AMP peptides at 15 μM (CFU vs control), Salmonella. The class given is cell-based. The following applies: peptide 15 μM. On the procedure: as §7
Assay [10] concerns Listeria. In words: Bactericidal activity of AMP peptides at 15 μM (CFU vs control), Listeria. The class given is cell-based. The following applies: peptide 15 μM. How it is done: as §7

≈ marks a conversion by molar mass, not a printed value. Peptide text beside a SMILES is read from it.

Consider `CC[C@H](C)[C@H](NC(=O)[C@H](CCCNC(=N)N)NC(=O)[C@@H](NC(=O)[C@H](Cc1c[nH]c2ccccc12)NC(=O)[C@H](CCCCN)NC(=O)[C@H](CC(C)C)NC(=O)[C@@H](N)CCCNC(=N)N)C(C)C)C(=O)N[C@@H](Cc1c[nH]c2ccccc12)C(=O)N[C@@H](CCCNC(=N)N)C(=O)N[C@@H](CCCNC(=N)N)C(N)=O` [RiLK1, RLKWVRIWRR] (H-RLKWVRIWRR-NH2; N-terminus assumed), for which the IC50 is 460 nM in [1] and 1200 nM in assay [2]. Besides, the minimal bactericidal concentration (MBC) in assay [3] and in [4] was 2 µM (≈ 2.94 µg/mL) in each case. In addition, the “post-treatment decrease in the fungal load” value is listed as 5 Log in [5] (A. brasiliensis, 25 μM peptide, 6 h at 37° C.) and 5 Log in [6] (C. albicans, 25 μM peptide, 6 h at 37° C.). Moreover, the “Drop Log CFU/ml” value worked out at 5 Log CFU/ml in [5] (A. brasiliensis, 10^5 CFUs, 25 μM peptide, 6 h at 37° C.) and 5 Log CFU/ml in assay [6] (C. albicans, 10^5 CFUs, 25 μM peptide, 6 h at 37° C.). Besides, the MFC result in assay [5] (ATCC 9341, 6 h) is listed as “less than or equal to 25 μM”; in assay [6] (ATCC 14053, 6 h), “less than or equal to 25 μM”. Also, the “bactericidal activity expressed as a percentage of viable cells (CFU) vs control” value in [7] was found to be 100%; in [8], 96.9%; in assay [9], 100%; in assay [10] it was 99.5%.
With RLRWVKIWKK (AMP) [RiLK31], the “bactericidal activity expressed as a percentage of viable cells (CFU) vs control” value in assay [7] is recorded as 100%; in [8], 83%; in assay [9], 100%; in assay [10], 98.8%.
RLRWVRIWRR (AMP) [RiLK3]: the “bactericidal activity expressed as a percentage of viable cells (CFU) vs control” value worked out at 100% in assay [7], 96% in assay [8], 100% in assay [9] and 99% in [10].
